The values below come from ChEMBL document CHEMBL4706760, “Novel Heteroaryl Compounds as Splicing Modulators for Modulating Splicing of mRNA and Uses Thereof for Treating Diseases” (ACS Med Chem Lett, 2021).

Holding throughout (type): subcellular
The nature of assay [1]: Splicing modulation activity at wild type Exon 7/7b/7c/8 mRNA in human cell lysates assessed as induction of poison exon inclusion in RNA measured cells pretreated for 24 hrs followed by first 16 hrs of incubation treated with cycloheximide for 8 hrs by qPCR.
Assay [2] in a line: Splicing modulation activity at Exon E7c mRNA in human cell lysates assessed as induction of poison exon inclusion in RNA measured cells pretreated for 24 hrs followed by first 16 hrs of incubation treated with cycloheximide for 8 hrs by qPCR.
A short description of assay [3]: Splicing modulation activity at Exon E7b mRNA in human cell lysates assessed as induction of poison exon inclusion in RNA measured cells pretreated for 24 hrs followed by first 16 hrs of incubation treated with cycloheximide for 8 hrs by qPCR. Background: In qPCR the cycle at which signal appears reflects the starting amount.
Assay [4] is described as follows: Splicing modulation activity at wild type Exon 12/12b/12c/13 mRNA in human cell lysates assessed as induction of poison exon inclusion in RNA measured cells pretreated for 24 hrs followed by first 16 hrs of incubation treated with cycloheximide for 8 hrs by qPCR.
Assay [5] in a line: Splicing modulation activity at Exon 12c mRNA in human cell lysates assessed as induction of poison exon inclusion in RNA measured cells pretreated for 24 hrs followed by first 16 hrs of incubation treated with cycloheximide for 8 hrs by qPCR.

A word on the IC50: it is the concentration that gives 50% inhibition. By EC50 is commonly meant the concentration needed to bring the measured effect to its halfway point. On to `CNC(=O)/C=C/c1cc(O)c(-c2ccc(N(C)[C@H]3C[C@]4(C)CCC[C@](C)(C3)N4)nn2)cc1F`, for which the IC50 in assay [1] is 99.1 nM; in assay [4], 162 nM. In addition, the EC50 in assay [2] stood at 310 nM; in assay [3] it was 41 nM; in assay [5] it was 126 nM.

As to `CN(c1ccc(-c2cc(F)c(-c3ccn(CF)c(=O)c3)cc2O)nn1)[C@H]1C[C@]2(C)CCC[C@](C)(C1)N2`, the IC50 in assay [1] was 93.9 nM; in assay [4] it was 94.7 nM. Also, the EC50 was 293 nM in assay [2], 88 nM in assay [3] and 92.9 nM in assay [5].

In the case of `CN(c1ncc(-c2ccc(-c3cn[nH]c3)cc2O)nn1)[C@@H]1C[C@H]2CC[C@@H](C1)N2`, in assay [1], the IC50 was determined as 150 nM. Also, the EC50 in assay [2] came out at 294 nM; in assay [3], 39.6 nM.

On to `CNC(=O)c1ccc2cc(-c3ccc(N(C)[C@H]4C[C@]5(C)CCC[C@](C)(C4)N5)nn3)c(O)cc2n1`, for which the IC50 was 27.6 nM in assay [1] and 54 nM in assay [4]. The values for the EC50 in assay [2], in assay [3] and in assay [5] were 60.2 nM, 9.3 nM and 46.1 nM, respectively.

For the molecule `CN(c1ccc(-c2cc(F)c(-c3ccn(C)c(=O)c3)cc2O)nn1)[C@H]1C[C@]2(C)CCC[C@](C)(C1)N2`, in assay [4], the IC50 is 116 nM. Moreover, in assay [5], the EC50 was 238 nM.

Consider `CN(c1ccc(-c2cc(F)c(-c3cn[nH]c3)cc2O)nn1)[C@@H]1C[C@H]2CCC[C@@H](C1)N2`, for which the IC50 in assay [1] was 46 nM. Also, the EC50 was 162 nM in assay [2] and 168 nM in assay [3].
